Experimental data reported in patent US20040029965A1, “Formulations for reducing or eliminating toxicity of enviromental hormones containing ursodeoxycholic acid” (priority 2000, published 2004).

Assays:
C57B1/6J mice = assay: Feed uptake of mice after a single subcutaneous injection of TCDD; format: in vivo; design: unit not given here
Protocol: Male C57B1/6J mice of 5 weeks old having the average weight of 18-22 g which had been bred in CRJ (Charles River in Japan) were purchased and used in this example as experimental animals. Those mice were acclimated under the constant breeding condition, i.e. the temperature of 24±1° C., the humidity of 60±10% and the light and darkness cycle of 12 hours, for one week and thereafter, utilized in the experiment.
The Experimental animals were supplied with Purina powdered feed (purchased from Hae Eun Trade) and supplied with water ad libitum. All the animals were weighed twice a week during experimentation.
2,3,7,8-tetrachlorodibenzo-p-dioxin (TCDD) dissolved in toluene (purity of 95% or more as a result of gas chromatography analysis), manufactured by Chem. Services Inc. in USA, was volatilized with nitrogen to obtain powder. The obtained powder was dissolved in a mixed solvent containing acetone and corn oil with a volume ratio of 1:6. The resulting solution each containing 110, 27.5 and 6.9 μg/kg of TCDD was subcutaneously injected to mice at a volume of 5 ml per body weight. […] The mice were supplied with the feed from 10 days before (pre-administration) to 60 days after administration of TCDD (post-administration).
The results are expressed as Mean±Standard Deviation values. For statistical analysis of the body weight, feed and water uptake, biochemical findings, hematological findings and the weight of organ in an acute toxicity test, verification was performed by one way analysis of variance (ANOVA) in case of equal distribution. In case significance was recognized in ANOVA, the Student's t-test was performed in the levels of p<0.05 and p<0.01.

[1] = system: Ovariectomized female B6C3F1 mice; assay: Uterus weight changes by bisphenol A (uterine proliferation); format: in vivo; details: UDCA 2 mg/day alone, s.c. for 4 days
Protocol: Ovariectomized female B6C3F1 mice of 5 weeks old, the average weight of which was 18 to 22 g and had been bred in CRJ, were purchased. They were acclimated under the constant breeding conditions, i.e. the constant temperature of 24±1° C., the humidity of 60±10% and the light and darkness cycle of 12 hours, for one week and then, utilized in the experiment. The animals were supplied with solid feed purchased from Purina and supplied with water ad libitum. After acclimation, test materials dissolved in corn oil were subcutaneously injected once a day for 4 days. The test materials used herein, stock solutions of bisphenol A and UDCA were prepared using ethanol. 2 mg of bisphenol A dissolved in 0.2 ml of corn oil was administered to the mice alone or in combination with UDCA once a day. The administration dose of UDCA was 0.2 or 2.0 mg, and corn oil was administered to the solvent control.
The results are expressed as Mean±Standard Deviation values. ANOVA was performed to evaluate the mean distribution of administered groups. In case that the significance was recognized in ANOVA, the Student's t-test was carried out in the levels of p<0.05 and p<0.01.

SMILES: Clc1cc2c(cc1Cl)Oc1cc(Cl)c(Cl)cc1O2 [TCDD, 2,3,7,8-tetrachlorodibenzo-p-dioxin]
- feed uptake (C57B1/6J mice; TCDD 6.9 μg/kg alone, 10 days): 4.76 ± 0.74
- feed uptake (C57B1/6J mice; TCDD 6.9 μg/kg alone, 20 days): 4.33 ± 0.84
- feed uptake (C57B1/6J mice; TCDD 6.9 μg/kg alone, 30 days): 4.97 ± 1.00
- feed uptake (C57B1/6J mice; TCDD 6.9 μg/kg alone, 40 days): 4.97 ± 1.00
- feed uptake (C57B1/6J mice; TCDD 6.9 μg/kg alone, 50 days): 3.51 ± 0.31
- feed uptake (C57B1/6J mice; TCDD 6.9 μg/kg alone, 60 days): 3.28 ± 1.56
- feed uptake (C57B1/6J mice; TCDD 27.5 μg/kg alone, 10 days): 3.86 ± 0.87
- feed uptake (C57B1/6J mice; TCDD 27.5 μg/kg alone, 20 days): 3.17 ± 1.68
- feed uptake (C57B1/6J mice; TCDD 27.5 μg/kg alone, 30 days): 2.37 ± 0.37
- feed uptake (C57B1/6J mice; TCDD 27.5 μg/kg alone, 40 days): 1.90 ± 0.27
- feed uptake (C57B1/6J mice; TCDD 27.5 μg/kg alone, 50 days): 1.50 ± 0.16
- feed uptake (C57B1/6J mice; TCDD 27.5 μg/kg alone, 60 days): 1.58 ± 0.32
- feed uptake (C57B1/6J mice; TCDD 110.0 μg/kg alone, 10 days): 4.19 ± 0.96
- feed uptake (C57B1/6J mice; TCDD 110.0 μg/kg alone, 20 days): 3.21 ± 1.13
- feed uptake (C57B1/6J mice; TCDD 110.0 μg/kg alone, 30 days): 3.88 ± 0.96
- feed uptake (C57B1/6J mice; TCDD 110.0 μg/kg alone, 40 days): 2.23 ± 0.56

SMILES: C[C@H](CCC(=O)O)[C@H]1CC[C@H]2[C@@H]3[C@@H](O)C[C@@H]4C[C@H](O)CC[C@]4(C)[C@H]3CC[C@]12C [UDCA, 3α, 7β-dihydroxy-5β-cholanoic acid]
- Mean weight of uterus ± SD [1]: 6.96 ± 1.34
- feed uptake (C57B1/6J mice; TCDD 6.9 μg/kg + UDCA 0.125 wt %, 10 days): 4.64 ± 0.73
- feed uptake (C57B1/6J mice; TCDD 6.9 μg/kg + UDCA 0.125 wt %, 20 days): 4.55 ± 0.44
- feed uptake (C57B1/6J mice; TCDD 6.9 μg/kg + UDCA 0.125 wt %, 30 days): 3.83 ± 0.36
- feed uptake (C57B1/6J mice; TCDD 6.9 μg/kg + UDCA 0.125 wt %, 40 days): 3.83 ± 0.36
- feed uptake (C57B1/6J mice; TCDD 6.9 μg/kg + UDCA 0.125 wt %, 50 days): 3.19 ± 0.13
- feed uptake (C57B1/6J mice; TCDD 6.9 μg/kg + UDCA 0.125 wt %, 60 days): 2.59 ± 0.23
- feed uptake (C57B1/6J mice; TCDD 6.9 μg/kg + UDCA 0.25 wt %, 10 days): 4.39 ± 0.79
- feed uptake (C57B1/6J mice; TCDD 6.9 μg/kg + UDCA 0.25 wt %, 20 days): 4.86 ± 0.90
- feed uptake (C57B1/6J mice; TCDD 6.9 μg/kg + UDCA 0.25 wt %, 30 days): 3.78 ± 0.57
- feed uptake (C57B1/6J mice; TCDD 6.9 μg/kg + UDCA 0.25 wt %, 40 days): 3.78 ± 0.57
- feed uptake (C57B1/6J mice; TCDD 6.9 μg/kg + UDCA 0.25 wt %, 50 days): 3.18 ± 0.56
- feed uptake (C57B1/6J mice; TCDD 6.9 μg/kg + UDCA 0.25 wt %, 60 days): 2.90 ± 0.30
- feed uptake (C57B1/6J mice; TCDD 6.9 μg/kg + UDCA 0.5 wt %, 10 days): 4.48 ± 0.67
- feed uptake (C57B1/6J mice; TCDD 6.9 μg/kg + UDCA 0.5 wt %, 20 days): 4.00 ± 1.11
- feed uptake (C57B1/6J mice; TCDD 6.9 μg/kg + UDCA 0.5 wt %, 30 days): 4.66 ± 0.67
- feed uptake (C57B1/6J mice; TCDD 6.9 μg/kg + UDCA 0.5 wt %, 40 days): 4.66 ± 0.67
- feed uptake (C57B1/6J mice; TCDD 6.9 μg/kg + UDCA 0.5 wt %, 50 days): 3.12 ± 0.40
- feed uptake (C57B1/6J mice; TCDD 6.9 μg/kg + UDCA 0.5 wt %, 60 days): 3.35 ± 1.56
- feed uptake (C57B1/6J mice; TCDD 27.5 μg/kg + UDCA 0.125 wt %, 10 days): 4.15 ± 0.64
- feed uptake (C57B1/6J mice; TCDD 27.5 μg/kg + UDCA 0.125 wt %, 20 days): 3.85 ± 0.43
- feed uptake (C57B1/6J mice; TCDD 27.5 μg/kg + UDCA 0.125 wt %, 30 days): 3.99 ± 0.34
- feed uptake (C57B1/6J mice; TCDD 27.5 μg/kg + UDCA 0.125 wt %, 40 days): 3.72 ± 0.21
- feed uptake (C57B1/6J mice; TCDD 27.5 μg/kg + UDCA 0.125 wt %, 50 days): 2.90 ± 0.98
- feed uptake (C57B1/6J mice; TCDD 27.5 μg/kg + UDCA 0.125 wt %, 60 days): 2.96 ± 0.29
- feed uptake (C57B1/6J mice; TCDD 27.5 μg/kg + UDCA 0.25 wt %, 10 days): 4.07 ± 0.40
- feed uptake (C57B1/6J mice; TCDD 27.5 μg/kg + UDCA 0.25 wt %, 20 days): 3.41 ± 0.71
- feed uptake (C57B1/6J mice; TCDD 27.5 μg/kg + UDCA 0.25 wt %, 30 days): 3.59 ± 0.38
- feed uptake (C57B1/6J mice; TCDD 27.5 μg/kg + UDCA 0.25 wt %, 40 days): 3.32 ± 0.39
- feed uptake (C57B1/6J mice; TCDD 27.5 μg/kg + UDCA 0.25 wt %, 50 days): 3.16 ± 0.24
- feed uptake (C57B1/6J mice; TCDD 27.5 μg/kg + UDCA 0.25 wt %, 60 days): 3.10 ± 0.77
- feed uptake (C57B1/6J mice; TCDD 27.5 μg/kg + UDCA 0.5 wt %, 10 days): 4.31 ± 1.49
- feed uptake (C57B1/6J mice; TCDD 27.5 μg/kg + UDCA 0.5 wt %, 20 days): 4.67 ± 1.13
- feed uptake (C57B1/6J mice; TCDD 27.5 μg/kg + UDCA 0.5 wt %, 30 days): 3.99 ± 0.36
- feed uptake (C57B1/6J mice; TCDD 27.5 μg/kg + UDCA 0.5 wt %, 40 days): 3.49 ± 0.57
- feed uptake (C57B1/6J mice; TCDD 27.5 μg/kg + UDCA 0.5 wt %, 50 days): 3.18 ± 0.55
- feed uptake (C57B1/6J mice; TCDD 27.5 μg/kg + UDCA 0.5 wt %, 60 days): 3.17 ± 0.49
- feed uptake (C57B1/6J mice; TCDD 110.0 μg/kg + UDCA 0.125 wt %, 10 days): 3.77 ± 0.43
- feed uptake (C57B1/6J mice; TCDD 110.0 μg/kg + UDCA 0.125 wt %, 20 days): 3.64 ± 1.16
- feed uptake (C57B1/6J mice; TCDD 110.0 μg/kg + UDCA 0.125 wt %, 30 days): 2.94 ± 0.64
- feed uptake (C57B1/6J mice; TCDD 110.0 μg/kg + UDCA 0.125 wt %, 40 days): 1.99 ± 0.58
- feed uptake (C57B1/6J mice; TCDD 110.0 μg/kg + UDCA 0.25 wt %, 10 days): 3.65 ± 0.33
- feed uptake (C57B1/6J mice; TCDD 110.0 μg/kg + UDCA 0.25 wt %, 20 days): 3.09 ± 0.44
- feed uptake (C57B1/6J mice; TCDD 110.0 μg/kg + UDCA 0.25 wt %, 30 days): 3.23 ± 0.55
- feed uptake (C57B1/6J mice; TCDD 110.0 μg/kg + UDCA 0.25 wt %, 40 days): 3.06 ± 1.89
- feed uptake (C57B1/6J mice; TCDD 110.0 μg/kg + UDCA 0.5 wt %, 10 days): 3.87 ± 0.57
- feed uptake (C57B1/6J mice; TCDD 110.0 μg/kg + UDCA 0.5 wt %, 20 days): 3.77 ± 0.62
- feed uptake (C57B1/6J mice; TCDD 110.0 μg/kg + UDCA 0.5 wt %, 30 days): 3.39 ± 0.24
- feed uptake (C57B1/6J mice; TCDD 110.0 μg/kg + UDCA 0.5 wt %, 40 days): 2.72 ± 0.72
- feed uptake (C57B1/6J mice; TCDD 110.0 μg/kg + UDCA 0.5 wt %, 50 days): 2.19 ± 0.22
- feed uptake (C57B1/6J mice; TCDD 110.0 μg/kg + UDCA 0.5 wt %, 60 days): 2.05 ± 0.62
